Data published in patent US20240342158A1, “METHOD OF TREATING AND/OR PREVENTING TYPE 1 DIABETES WITH CEPHARANTHINE” (ALBERT EINSTEIN COLLEGE OF MEDICINE, priority 2021, published 2024).

Tests used:
[1] = molecular target: recombinant APS3v-HLA-DR3 (Homo sapiens, UniProt P01903+P01911, A100K/A102G/A103R/F55Y/I96L/K41T/P40S/Q125H/Q178H/Q39Y/R42S/S66N/T106N/W38E/Y61H); assay: ELISA inhibition assay of biotinylated peptide binding to recombinant APS3v-HLA-DR3
Protocol: An in vitro binding assay was performed. […] On the day before the immunoassay was performed, a 96-well DELFIA yellow plate (PerkinElmer Life Science) was coated overnight with 20 μg/ml of L243 antibody [Hybridoma was purchased from ATCC, catalogue number HB-55, and IgG was purified by QED Bioscience (San Diego, CA)] in bicarbonate buffer, pH 9.6 (Sigma-Aldrich). L243 is a monoclonal antibody that specifically recognizes the DRa chain of HLA-DR when it is properly folded and complexed with the b chain. The plate was then washed with DELFIA wash buffer (diluted 1:25 from DELFIA wash concentrate, PerkinElmer) to wash off the excess L243 antibody. Blocking was performed using 2.5% BSA in PBS at room temperature for 1 h. After washing 4 times, 100 μl of the pre-incubated mix (containing recombinant APS3v-HLA-DR3 protein, APO, and small molecules) were added onto the plate and shaken at slow speed for 2 h at room temperature. After washing 4 times, DELFIA Europium-labeled streptavidin (PerkinElmer) diluted in DELFIA assay buffer (PerkinElmer) was added for 30 min and shaken at slow speed at room temperature. After washing for 6 times, DELFIA Enhancement Solution was added for 1 h until the optimal signal was reached. Time-resolved fluorescence was measured using the BMG reader (BMG Labtech, Cary, NC). A virtual screen identified 100 small molecules that were predicted to block the unique APS3v-HLA-DR3 pocket. To produce a manageable selection of compounds for validation we clustered the 100 compounds by their simplified molecular input line entry system (SMILES) similarity into 20 clusters. Of the 20 clusters we selected the top scoring members in each cluster. We have enhanced this list to include a total of 11 compounds that blocked APS3v-HLA-DR3, the key HLA-DR3 pocket that triggers APS3v. We tested the selected 11 small molecules identified by the virtual screen in our in vitro ELISA, to test whether the 11 small molecules can block APO peptide (the strongest known peptide binder to HLA-DR3) binding to recombinant APS3v-HLA-DR3. Of the 4 validated small molecules we selected S53 for further testing because it is the only one that has been used in humans before. […] ELISA was performed as previously described.

humanized NOD-DR3 mice = assay: Free T4 and anti-mouse Tg antibody levels in cepharanthine-treated immunized mice; type: in vivo; conditions: data not shown
Protocol: Autoantibody Measurements: Sera were collected from mice upon sacrifice and stored in −20° C. Nunc™ Maxisorp™ ELISA plate (Thermo Fisher Scientific, Waltham, MA) was coated with 10 μg/ml of either Tg.1571, GAD.492, TPO.758 or mouse Tg in bicarbonate buffer (Sigma-Aldrich) at pH 9.6 and incubated overnight. The ELISA plate was washed 4 times with PBS supplemented with 0.05% Tween (Sigma-Aldrich) [PBST]. After blocking with 2.5% BSA in PBST for 1 h at 37° C., the plate was washed with PBST for 6 times. 100 μl of the diluted sera (1:100 in 0.5% BSA/PBS) was added for 2 h with slow shaking at room temperature. After washing for 6 times with PBST, anti-mouse IgG secondary antibody (Sigma-Aldrich) was added at 1:30,000 dilution in 1% BSA/PBST and incubated for 30 min at 37° C. After washing the plate for 4 times with PBST, the freshly prepared paranitrophenylphosphate substrate (Sigma-Aldrich) was added for 1 h and the plate was read at 405 nm using the BMG reader (BMG Labtech, Cary, NC).
Free T4 Measurements: Sera were collected from mice and were assayed for free thyroxin (fT4) measurements using free thyroxine ELISA kit (Alpha Diagnostic International, San Antonio, TX, catalog no. 1110). Assay was performed according to manufacturer's protocol. […] Absorbance at 450 nm was measured using a BMG ELISA reader (BMG Labtech). […]

Sequence of recombinant APS3v-HLA-DR3 (P01911 30-227 W38E/Q39Y/P40S/K41T/R42S/F55Y/Y61H/S66N/I96L/A100K/A102G/A103R/T106N/Q125H/Q178H): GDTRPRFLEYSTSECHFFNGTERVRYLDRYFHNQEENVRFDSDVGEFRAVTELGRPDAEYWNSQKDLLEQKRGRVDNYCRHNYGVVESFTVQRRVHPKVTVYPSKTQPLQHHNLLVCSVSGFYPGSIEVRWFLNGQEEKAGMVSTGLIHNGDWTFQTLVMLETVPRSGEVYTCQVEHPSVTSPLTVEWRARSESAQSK
Sequence of recombinant APS3v-HLA-DR3 (P01903 26-216): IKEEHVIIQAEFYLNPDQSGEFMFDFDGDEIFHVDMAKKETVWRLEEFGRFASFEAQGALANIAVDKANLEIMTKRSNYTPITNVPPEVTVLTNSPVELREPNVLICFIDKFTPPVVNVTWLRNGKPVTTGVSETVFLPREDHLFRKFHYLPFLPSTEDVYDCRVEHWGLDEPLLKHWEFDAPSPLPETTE

SMILES: COc1ccc2cc1Oc1ccc(cc1)C[C@H]1c3c(cc4c(c3Oc3cc5c(cc3OC)CCN(C)[C@@H]5C2)OCO4)CCN1C [S53, Cepharanthine]
- inhibition of binding of the 3 peptides (TPO.758, GAD.492, Tg.1571) to the HLA-DR3 pocket ([1]; ELISA inhibition assay, final concentration 0.4 mM): significant inhibition of binding for all 3 peptides
- blocking of binding of biotinylated APO, TPO.758, GAD.492 and Tg.1571 to APS3v-HLA-DR3 ([1]; decreasing doses 0.4 mM, 0.2 mM, 0.1 mM, 0.05 mM): blocked the binding of each peptide in a dose-dependent manner
- antibody levels against mouse Tg (humanized NOD-DR3 mice): did not significantly affect
- free T4 levels (humanized NOD-DR3 mice): did not significantly affect
